Reference: patent US10980805B2, “Aza-pyridone compounds and uses thereof” (Janssen BioPharma, Inc., priority 2013, dated 2021)
Like-named read-outs stand apart in the source and are kept apart here.

Experiments:
[1] = system: Influenza strain A549_A/WSN/33 (H1N1); experiment: Influenza antiviral assay (neuraminidase fluorescence readout); format: cell-based, Influenza virus; conditions: read-out: % Inhibition (EC50 class, Table 2)
[2] = molecular target: Full length EN PA (influenza PA endonuclease) (Influenza A virus, UniProt P15659); experiment: EN PA FRET inhibition assay; format: biochemical; conditions: FRET probe, mean of a minimum of two independent experiments, read-out: Potency (IC50 class, Table 3)

Row | Structure (SMILES) | EC50 ([1]; Influenza A virus) | IC50 [2] | EC50 [1]
1 | CC(C)N1C[C@H](C(c2ccccc2)c2cccc(Cl)c2)n2ncc(=O)c(O)c2C1=O (single isomer, unassigned) [Compound 73-A] | < 20000 nM | < 250 nM | 
2 | CC(C)N1C[C@@H](C(c2ccccc2)c2cccc(Cl)c2)n2ncc(=O)c(O)c2C1=O (single isomer, unassigned) [Compound 73-B] | < 20000 nM | 250 to 1000 nM | 
3 | CC(C)N1C[C@H](C(c2ccccc2)c2cccc(Cl)c2)n2ncc(=O)c(O)c2C1=O (single isomer, unassigned) [Compound 82-A] |  | < 250 nM | < 20000 nM
4 | CC(C)N1C[C@@H](C(c2ccccc2)c2cccc(Cl)c2)n2ncc(=O)c(O)c2C1=O (single isomer, unassigned) [Compound 82-B] |  | 250 to 1000 nM | 
5 | CN1C[C@H](C(c2ccccc2)c2ccccc2)n2ncc(=O)c(O)c2C1=O [Compound 1-A] | < 20000 nM | < 250 nM | 
6 | CN1C[C@@H](C(c2ccccc2)c2ccccc2)n2ncc(=O)c(O)c2C1=O [Compound 1-B] | < 20000 nM | 250 to 1000 nM | 
7 | CN1CC(C(c2ccccc2)c2ccccc2)n2ncc(=O)c(O)c2C1=O (centres unmarked) [Compound 1] | < 20000 nM | < 250 nM | 
8 | CN1CC(Cc2ccccc2)n2ncc(=O)c(O)c2C1=O (centres unmarked) [Compound 2] |  | < 250 nM | 
9 | CN1CC(CCc2ccccc2)n2ncc(=O)c(O)c2C1=O (centres unmarked) [Compound 3] |  | < 250 nM | 
10 | Cc1ccccc1CC1CN(C)C(=O)c2c(O)c(=O)cnn21 (centres unmarked) [Compound 4] |  | < 250 nM | 
11 | CCN1C[C@H](C(c2ccccc2)c2ccccc2)n2ncc(=O)c(O)c2C1=O [Compound 5-A] | < 20000 nM | < 250 nM | 
12 | CCN1C[C@@H](C(c2ccccc2)c2ccccc2)n2ncc(=O)c(O)c2C1=O [Compound 5-B] | < 20000 nM | 250 to 1000 nM | 
13 | CCN1CC(C(c2ccccc2)c2ccccc2)n2ncc(=O)c(O)c2C1=O (centres unmarked) [Compound 5] | < 20000 nM | < 250 nM | 
14 | CC(C)N1C[C@@H](C(c2ccccc2)c2ccccc2)n2ncc(=O)c(O)c2C1=O [Compound 6-B] | < 20000 nM | 250 to 1000 nM | 
15 | CC(C)N1CC(C(c2ccccc2)c2ccccc2)n2ncc(=O)c(O)c2C1=O (centres unmarked) [Compound 6] | < 20000 nM | < 250 nM | 
16 | CN1C[C@@H](C2c3ccccc3CCc3ccccc32)n2ncc(=O)c(O)c2C1=O [Compound 7-B] | < 20000 nM | < 250 nM | 
17 | CN1CC(C2c3ccccc3CCc3ccccc32)n2ncc(=O)c(O)c2C1=O (centres unmarked) [Compound 7] | < 20000 nM | < 250 nM | 
18 | O=C1NCC(C(c2ccccc2)c2ccccc2)n2ncc(=O)c(O)c21 (centres unmarked) [Compound 8] | < 20000 nM | < 250 nM | 
19 | CN1C[C@H]([C@@H](c2ccccc2)c2cccc(Cl)c2)n2ncc(=O)c(O)c2C1=O [Compound 9-A] | < 20000 nM | < 250 nM | 
20 | CN1C[C@H]([C@H](c2ccccc2)c2cccc(Cl)c2)n2ncc(=O)c(O)c2C1=O [Compound 9-B] | < 20000 nM | < 250 nM | 
21 | CN1CC(C(c2ccccc2)c2cccc(Cl)c2)n2ncc(=O)c(O)c2C1=O (centres unmarked) [Compound 9] | < 20000 nM | < 250 nM | 
22 | O=C1NCC(C2c3ccccc3CSc3c(Cl)cccc32)n2ncc(=O)c(O)c21 (centres unmarked) [Compound 10] | < 20000 nM | < 250 nM | 
23 | CC(C)N1CC(=C(c2ccccc2)c2ccccc2)n2ncc(=O)c(O)c2C1=O [Compound 11] |  | < 250 nM | 

Row | Structure (SMILES) | EC50 ([1]; Influenza A virus) | IC50 [2] | EC50 [1]
24 | CCN1C[C@H]([C@@H](c2ccccc2)c2cccc(Cl)c2)n2ncc(=O)c(O)c2C1=O [Compound 12-A] | < 20000 nM | < 250 nM | 
25 | CCN1C[C@H]([C@H](c2ccccc2)c2cccc(Cl)c2)n2ncc(=O)c(O)c2C1=O [Compound 12-B] | < 20000 nM | < 250 nM | 
26 | CCN1C[C@H](C(c2ccccc2)c2cccc(Cl)c2)n2ncc(=O)c(O)c2C1=O (some centres unmarked) [Compound 12-C] |  | < 250 nM | 
27 | CCN1C[C@@H]([C@@H](c2ccccc2)c2cccc(Cl)c2)n2ncc(=O)c(O)c2C1=O [Compound 12-D] |  | 250 to 1000 nM | 
28 | CCN1C[C@@H]([C@H](c2ccccc2)c2cccc(Cl)c2)n2ncc(=O)c(O)c2C1=O [Compound 12-E] |  | < 250 nM | 
29 | CCN1CC(C(c2ccccc2)c2cccc(Cl)c2)n2ncc(=O)c(O)c2C1=O (centres unmarked) [Compound 12] | < 20000 nM | < 250 nM | 
30 | O=C1c2c(O)c(=O)cnn2[C@@H](C2c3ccccc3CCc3ccccc32)CN1Cc1ccccc1 [Compound 13-A] | < 20000 nM | < 250 nM | 
31 | O=C1c2c(O)c(=O)cnn2[C@H](C2c3ccccc3CCc3ccccc32)CN1Cc1ccccc1 [Compound 13-B] | < 20000 nM | 250 to 1000 nM | 
32 | O=C1c2c(O)c(=O)cnn2C(C2c3ccccc3CCc3ccccc32)CN1Cc1ccccc1 (centres unmarked) [Compound 13] | < 20000 nM | < 250 nM | 
33 | CCN1C[C@H](C2c3ccccc3CCc3ccccc32)n2ncc(=O)c(O)c2C1=O [Compound 14-A] | < 20000 nM | < 250 nM | 
34 | CCN1C[C@@H](C2c3ccccc3CCc3ccccc32)n2ncc(=O)c(O)c2C1=O [Compound 14-B] |  | < 250 nM | 
35 | CCN1CC(C2c3ccccc3CCc3ccccc32)n2ncc(=O)c(O)c2C1=O (centres unmarked) [Compound 14] | < 20000 nM | < 250 nM | 
36 | CC(N1CC(=C(c2ccccc2)c2ccccc2)n2ncc(=O)c(O)c2C1=O)C(F)(F)F (centres unmarked) [Compound 15] |  | ≥ 1000 nM | 
37 | O=C1NCC(C2c3ccccc3CSc3cc(Cl)ccc32)n2ncc(=O)c(O)c21 (centres unmarked) [Compound 16] | < 20000 nM | 250 to 1000 nM | 
38 | CC(C)N1C[C@H](C2c3ccccc3CCc3ccccc32)n2ncc(=O)c(O)c2C1=O [Compound 17-A] |  | < 250 nM | 
39 | CC(C)N1C[C@@H](C2c3ccccc3CCc3ccccc32)n2ncc(=O)c(O)c2C1=O [Compound 17-B] | < 20000 nM | < 250 nM | 
40 | CC(C)N1CC(C2c3ccccc3CCc3ccccc32)n2ncc(=O)c(O)c2C1=O (centres unmarked) [Compound 17] | < 20000 nM | < 250 nM | 
41 | C[C@H](N1C[C@H](C(c2ccccc2)c2ccccc2)n2ncc(=O)c(O)c2C1=O)C(F)(F)F [Compound 18-A] | < 20000 nM | < 250 nM | 
42 | C[C@@H](N1C[C@@H](C(c2ccccc2)c2ccccc2)n2ncc(=O)c(O)c2C1=O)C(F)(F)F [Compound 18-B] | < 20000 nM | < 250 nM | 
43 | CC(N1CC(C(c2ccccc2)c2ccccc2)n2ncc(=O)c(O)c2C1=O)C(F)(F)F (centres unmarked) [Compound 18] | < 20000 nM | < 250 nM | 
44 | CN1CC(Cc2ccccc2-c2ccccc2)n2ncc(=O)c(O)c2C1=O (centres unmarked) [Compound 19] | < 20000 nM | < 250 nM | 
45 | CC(C)N1CC(C(c2ccccc2)c2cccc(Cl)c2)n2ncc(=O)c(O)c2C1=O (centres unmarked) [Compound 20] | < 20000 nM | < 250 nM | 
46 | CCN1C[C@@H](C(c2cccc(F)c2)c2cccc(F)c2)n2ncc(=O)c(O)c2C1=O [Compound 21-B] | < 20000 nM | < 250 nM | 

Row | Structure (SMILES) | EC50 ([1]; Influenza A virus) | IC50 [2] | EC50 [1]
47 | CCN1CC(C(c2cccc(F)c2)c2cccc(F)c2)n2ncc(=O)c(O)c2C1=O (centres unmarked) [Compound 21] | < 20000 nM | < 250 nM | 
48 | CN1CC(C(c2cccc(F)c2)c2cccc(F)c2)n2ncc(=O)c(O)c2C1=O (centres unmarked) [Compound 22] | < 20000 nM | < 250 nM | 
49 | CN1CC(C(c2ccccc2)c2cccc(F)c2)n2ncc(=O)c(O)c2C1=O (centres unmarked) [Compound 23] | < 20000 nM | < 250 nM | 
50 | CCN1CC(C(c2ccccc2)c2cccc(F)c2)n2ncc(=O)c(O)c2C1=O (centres unmarked) [Compound 24] | < 20000 nM | < 250 nM | 
51 | Cc1cccc(C(c2cccc(C)c2)C2CN(C)C(=O)c3c(O)c(=O)cnn32)c1 (centres unmarked) [Compound 25] | < 20000 nM | < 250 nM | 
52 | COc1cccc(C(c2ccccc2)C2CN(C)C(=O)c3c(O)c(=O)cnn32)c1 (centres unmarked) [Compound 26] | < 20000 nM | < 250 nM | 
53 | Cc1cccc(C(c2ccccc2)C2CN(C)C(=O)c3c(O)c(=O)cnn32)c1 (centres unmarked) [Compound 27] | < 20000 nM | < 250 nM | 
54 | CN1CC(C(c2cccc(Cl)c2)c2cccc(Cl)c2)n2ncc(=O)c(O)c2C1=O (centres unmarked) [Compound 28] | < 20000 nM | < 250 nM | 
55 | CN1CC(C2c3ccccc3CCc3cc(Cl)ccc32)n2ncc(=O)c(O)c2C1=O (centres unmarked) [Compound 29] | < 20000 nM | < 250 nM | 
56 | CC(C)N1CC(=C2c3ccccc3CCc3ccccc32)n2ncc(=O)c(O)c2C1=O [Compound 30] | 20000 to 100000 nM | < 250 nM | 
57 | CN1CC(C2c3ccc(Cl)cc3CCc3cc(Cl)ccc32)n2ncc(=O)c(O)c2C1=O (centres unmarked) [Compound 31] | < 20000 nM | < 250 nM | 
58 | CN1CC(C(c2ccccc2)c2ccc(Cl)cc2)n2ncc(=O)c(O)c2C1=O (centres unmarked) [Compound 32] | < 20000 nM | < 250 nM | 
59 | C[C@H](N1C[C@H](C2c3ccccc3CCc3ccccc32)n2ncc(=O)c(O)c2C1=O)C(F)(F)F [Compound 33-A] | < 20000 nM | < 250 nM | 
60 | C[C@@H](N1C[C@@H](C2c3ccccc3CCc3ccccc32)n2ncc(=O)c(O)c2C1=O)C(F)(F)F [Compound 33-B] | < 20000 nM | < 250 nM | 
61 | CCN1CC(C(c2ccccc2)c2cccc(OC)c2)n2ncc(=O)c(O)c2C1=O (centres unmarked) [Compound 34] | < 20000 nM | < 250 nM | 
62 | C[C@H](N1CC(C(c2ccccc2)c2ccccc2)n2ncc(=O)c(O)c2C1=O)C(F)(F)F (some centres unmarked) [Compound 35-A] | < 20000 nM | < 250 nM | 
63 | C[C@@H](N1CC(C(c2ccccc2)c2ccccc2)n2ncc(=O)c(O)c2C1=O)C(F)(F)F (some centres unmarked) [Compound 35-B] | < 20000 nM | 250 to 1000 nM | 
64 | CC(C)N1C[C@@H](C(c2cccc(F)c2)c2cccc(F)c2)n2ncc(=O)c(O)c2C1=O [Compound 41-B] |  | 250 to 1000 nM | 
65 | CCC(CC)N1CC(C(c2ccccc2)c2ccccc2)n2ncc(=O)c(O)c2C1=O (centres unmarked) [Compound 43] |  | < 250 nM | 
66 | CC(C)N1CC(C(c2cccc(Cl)c2)c2cccc(Cl)c2)n2ncc(=O)c(O)c2C1=O (centres unmarked) [Compound 44] |  | < 250 nM | 
67 | [2H]c1c([2H])c([2H])c(C(c2c([2H])c([2H])c([2H])c([2H])c2[2H])[C@H]2CN(C(C)C)C(=O)c3c(OC(=O)C(C)C)c(=O)cnn32)c([2H])c1[2H] [Compound 130] | < 20000 nM |  | 
